Reference: patent US20070042046A1, “Methods for the treatment of cancer” (priority 2003, published 2007)

Assays:
[1] = Animal mortality and survival after intra-tumoural injection in tumour-bearing nude mice; type: in vivo; conditions: for animal mortality rate: intratumoural
Protocol: The following protocol was adopted: • 1. Culture of human cells and implantation of the tumour cells as solid tumours in nude mice: The carcinoma cell-line was cultured in RPMI and Ham's F-12 media respectively with 10% fetal calf serum in a CO2 incubator and subcultured every two to three days until growing to a number enough for implantation in animals. The cells were then implanted as solid tumors in nude mice]. The cells were collected in HBSS (Hanks balanced salt solution). One hundred microliters of cell suspension in HBSS (5×10^6 cells) was injected subcutaneously into right gluteal region of nude mice (female, 6 to 9 week old nude mice with average body weight of 25 g, housed in pathogen-free conditions) using a 25-gauge needle. • 2. Animals groups: Animals were randomly grouped into control 1 (injected with peanut oil), control 2 (injected with porous silicon without drug), free chlorambucil (drug injected without porous silicon directly into tumour or injected via intraperitoneal route) and chlorambucil impregnated porous silicon groups. Each group included 16 to 20 animals. • 3. Injection of chlorambucil impregnated porous silicon in transplanted tumours: On day 14 after implantation of tumours (diameter of the tumour about lcm), the chlorambucil impregnated formulation was applied to the centre of the tumours. • 4. Tumour volumetrics: The sizes of implanted tumours in nude mice was estimated every 3 days. The largest and smallest diameters were measured by a vernier caliper and tumour volumes estimated according the formula: V=½ ab^2, where a and b are largest and smallest tumour diameters respectively, and V is the tumour volume in cm^3.
The effects of intra-tumoural administered chlorambucil loaded porous silicon on the growth of the tumour was studied and compared with control and systemic therapy groups. The body weight of the animals was estimated by subtracting the tumour volume (cm3) from the total body weight (g) every 3 days. The survival time of each experimental animal was recorded. […]

HeLa cells = experiment: Live/Dead cell assay; conditions: 24 hours, chlorambucil 90 μg/ml
Protocol: Cells with formulated drug were collected at 24 hours after incubation, placed into sterile plastic tubes and centrifuged. The supernatants were aspirated out and the cell pellets were washed gently with copious amount of PBS and centrifuged to remove any excipient. The cell pellet was dislodged gently and incubated with 300 μl of Live/dead cell assay reagent and incubated for 45 minutes on a rocker with gentle shaking (20 shakes per minute). At the end of incubation the cells were spun down, washed twice with PBS, reconstituted with 1 ml of PBS and transferred into a plate to capture the images of Live/Dead cells using fluorescent microscope.
The Live/Dead cell assay was performed on HeLa cell cultures grown on collagen coated plated and treated with various forms of porous silicon (AN^+/SE, loaded/unloaded, pre-formulated/formulated).
The procedure was performed on adherent cells after the floating cells were washed off. […] Therefore, percentage of live and dead cells was calculated from the adherent cells stuck to the bottom of the wells. Each sample was run in triplicate wells and one microscopic field image from each well was captured and the live and dead cells were counted to get an average % of cytotoxicity.

Which results are given for O=C(O)CCCc1ccc(N(CCCl)CCCl)cc1 [chlorambucil, 4-[bis(2-chloroethyl)amino}benzenebutanoic acid]?
animal mortality rate ([1]; 720 ug): 50%; animal mortality rate ([1]; 1500 ug (2×LD50)): 90%; LD50 ([1]; nude mice, free drug): 720 µg; dead cell percentage (cytotoxicity) (HeLa cells): ≥ 95%
